# Experimental data as given in US5665738A, “Imidazole derivatives and processes for the preparation thereof” (Korea Research Institute of Chemical Technology, priority 1994, dated 1997).
# Tested on: angiotensin II receptor
# Assay: Angiotensin II receptor binding assay ([3H] angiotensin II displacement)
# Conditions: 60 minutes at 25° C., pH 7.2, test concentration not given
# Procedure: The inventive compounds were tested to measure their angiotensin II receptor binding capacity as follows.
# 1. Angiotensin II receptor binding assay
# In accordance with the procedure disclosed in Chiu, A. T. et al., Eur. J. Pharm., 157, 13 ([…])t a ligand marked with a radioistope was reacted with an angiotensin II receptor and the reactant was filtered with a glass fiber to remove unreacted ligand. After washing the filter, the amount of the remaining isotope was measured to determine the binding activity of the ligand, as described below in detail.
# (i) Isolation of angiotensin II receptor
# Sprague-Dawley rats and Wistar rats of 250 to 350 g (from The Korea Research Institute of Chemical Technology) were tested and the test procedures were carried out at 4° C., unless otherwise specified. Adrenal gland was separated from the Sprague-Dawley rats (liver, in the case of Wistar rats) into cortex and medulla. The separated adrenal cortex and medulla were washed with a sucrose buffer solution (0.2M sucrose, 1 mM EDTA, 10 mM Tris, pH 7.2) and homogenized in the same buffer solution by using a Teflon pestle and a Brinkmann homogenizer. The homogenates were centrifuged at 3,000× g for 10 minutes to remove precipitates and further centrifuged at 12,000× g for 13 minutes. The final supernatants were centrifuged at 102,000× g for 1 hour to obtain precipitates, which were washed with a Tris buffer solution (50 mM Tris, 5 mM MgCl2, pH 7.2) and re-centrifuged at 102,000× g for 1 hour. The resulting precipitates were immediately processed at the following step or stored at -70° C.
# The precipitates were suspended in a Tris buffer solution. The amount of protein was determined by using a Bio-Rad DC protein analyzing kit and the protein concentration was adjusted to the amounts of: 0.2 to 0.3 mg/ml (Sprague-Dawley rat: adrenal cortex), 1.5 to 2.0 mg/ml (Sprague-Dawley rat: adrenal medulla), and 1.5 to 2.0 mg/ml (Wistar rat: liver). To the suspension, bovine serum albumin (BSA) was added to a concentration of 0.25 wt % and the resultant was immediately processed at the following step or stored at -70° C.
# (ii) Measurement of angiotensin II receptor binding capacity
# 50 μl (based on ligand) of [^3 H] angiotensin II (NEN, NET-446) and 10 μl of each of the test compounds with various concentrations were added to the buffer solution (50 mM Tris (pH 7.2), 5 mM MgCl2, 0.25% BSA) to adjust the final volume to be 0.5 ml. Losartan (Dup 753), which is disclosed in EP No. 400,974 issued to Merck, was used as the control compound. 100 μl of the receptor suspension was added thereto and the resulting solution was reacted for 60 minutes while stirring in a water bath at 25° C. 3 ml of cold buffer solution for analysis was added to cease the reaction. The isotope which was bound to the receptor was isolated from the resultant by using Brandel Cell Harvester System with Whatman glass fiber GF/C. After washing the filter, the radioactivity of the filter was determined by using a liquid scintillation counter. Binding inhibition (%) of the test compound was calculated as follows:
# Binding Inhibition (%)=[{(T-B)-(S-B)}/(T-B)]×100
# wherein T is the radioactivity (cpm) of the reaction product untreated with the test compound, S is the radioactivity (cpm) of the reaction product treated with the test compound, and B is the radioactivity (cpm) of blank test.
row,Compound,Binding Inhibition (%)
1,"CCCCc1nc(Cl)c(C(=O)c2ccc(CN(CC)CC)cn2)n1Cc1ccc(-c2ccccc2-c2nnn[nH]2)cc1 [Compound 34, {2-butyl-5-chloro-3-[(2'-(1H-tetrazol-5-yl)biphenyl-4-yl)methyl]-3H-imidazol-4-yl}[5-((diethylamino)methyl)pyridin-2-yl]methanone]",95.6
2,"CCCCc1nc(Cl)c(C(=O)c2cccc(C[N+]([O-])(CC)CC)n2)n1Cc1ccc(-c2ccccc2-c2nn[nH]n2)cc1 [Compound 14, {2-butyl-5-chloro-3-[(2'-(1H-tetrazol-5-yl)biphenyl-4-yl)methyl]-3H-imidazol-4-yl}[6-[((diethyl)(oxy)amino)methyl]pyridin-2-yl]methanone]",92.1
3,"CCCCc1nc(Cl)c(C(=O)c2cccc(C(=O)N(CC)CC)[n+]2[O-])n1Cc1ccc(-c2ccccc2-c2nn[nH]n2)cc1 [Compound 37, {2-butyl-5-chloro-3-[(2'-(1H-tetrazol-5-yl)biphenyl-4-yl)methyl]-3H-imidazol-4-yl}[6-(diethylamino)carbonyl-1-oxypyridin-2-yl]methanone]",92.8
4,"CCCCc1nc(Cl)c(C(O)c2cccc(CN(CC)CC)n2)n1Cc1ccc(-c2ccccc2-c2nnn[nH]2)cc1 (stereo not shown) [Compound 12, {2-butyl-5-chloro-3-[(2'-(1H-tetrazol-5-yl)biphenyl-4-yl)methyl]-3H-imidazol-4-yl}[6-((diethylamino)methyl)pyridin-2-yl]methanol]",63.2
5,"CCCCc1nc(Cl)c(C(=O)c2ccc(C[N+]([O-])(CC)CC)cn2)n1Cc1ccc(-c2ccccc2-c2nn[nH]n2)cc1 [Compound 35, {2-butyl-5-chloro-3-[(2'-(1H-tetrazol-5-yl)biphenyl-4-yl)methyl]-3H-imidazo1-4-yl}{5-[((diethyl)(oxy)amino)methyl]pyridin-2-yl}methanone]",97.9
6,"CCCCc1nc(Cl)c(C(=O)c2cccc(CO)[n+]2[O-])n1Cc1ccc(-c2ccccc2-c2nn[nH]n2)cc1 [Compound 3, {2-butyl-5-chloro-3-[(2'-(1H-tetrazol-5-yl)biphenyl-4-yl)methyl]-3H-imidazol-4-yl}(6-hydroxymethyl-1-oxypyridin-2-yl)methanone]",96.3
7,"CCCCc1nc(Cl)c(C(=O)c2cccc(CO)n2)n1Cc1ccc(-c2ccccc2-c2nnn[nH]2)cc1 [Compound 8, {2-butyl-5-chloro-3-[(2'-(1H-tetrazol-5-yl)biphenyl-4-yl)methyl]-3H-imidazol-4-yl}[6-(hydroxymethyl)pyridin-2-yl]methanone]",68.9
8,"CCCCc1nc(Cl)c(C(=O)c2cccc(CN(CC)CC)n2)n1Cc1ccc(-c2ccccc2-c2nnn[nH]2)cc1 [Compound 13, {2-butyl-5-chloro-3-[(2'-(1H-tetrazol-5-yl)biphenyl-4-yl)methyl]-3H-imidazol-4-yl}[6-((diethylamino)methyl)pyridin-2-yl]methanone]",90.5
9,"CCCCc1nc(Cl)c(C(=O)c2cccc(C=O)[n+]2[O-])n1Cc1ccc(-c2ccccc2-c2nn[nH]n2)cc1 [Compound 2, {2-butyl-5-chloro-3-[(2'-(1H-tetrazol-5-yl)biphenyl-4-yl)methyl]-3H-imidazol-4-yl}(6-formyl-1-oxypyridin-2-yl)methanone]",95.0
10,CCCCc1nc(Cl)c(C(=O)c2ccc(CO)cn2)n1Cc1ccc(-c2ccccc2-c2nn[nH]n2)cc1 [Compound 28],78.9
11,"CCCCc1nc(Cl)c(C(=O)c2cccc(C(OC)OC)n2)n1Cc1ccc(-c2ccccc2-c2nnn[nH]2)cc1 [Compound 6, {2-butyl-5-chloro-3-[(2'-(1H-tetrazol-5-yl)biphenyl-4-yl)methyl]-3H-imidazol-4-yl}[6-(dimethoxymethyl)pyridin-2-yl]methanone]",91.2
12,"CCCCc1nc(Cl)c(C(=O)c2ccc(C(OC)OC)c[n+]2[O-])n1Cc1ccc(-c2ccccc2-c2nn[nH]n2)cc1 [Compound 22, {2-butyl-5-chloro-3-[(2'-(1H-tetrazol-5-yl)biphenyl-4-yl)methyl]-3H-imidazol-4-yl}[5-(dimethoxymethyl)-1-oxypyridin-2-yl]methanone]",90.1
13,"CCCCc1nc(Cl)c(C(=O)c2ccc(C=O)c[n+]2[O-])n1Cc1ccc(-c2ccccc2-c2nn[nH]n2)cc1 [Compound 23, {2-butyl-5-chloro-3-[(2'-(1H-tetrazol-5-yl)biphenyl-4-yl)methyl]-3H-imidazol-4-yl}(5-formyl-1-oxypyridin-2-yl)methanone]",93.4
14,"CCCCc1nc(Cl)c(C(=O)c2cccc(Br)[n+]2[O-])n1Cc1ccc(-c2ccccc2-c2nn[nH]n2)cc1 [Compound 15, {2-butyl-5-chloro-3-[(2'-(1H-tetrazol-5-yl)biphenyl-4-yl)methyl]-3H-imidazol-4-yl}(6-bromo-1-oxypyridin-2-yl)methanone]",88.6
15,"CCCCc1nc(Cl)c(C(O)c2cccc(C(OC)OC)n2)n1Cc1ccc(-c2ccccc2-c2nnn[nH]2)cc1 (stereo not shown) [Compound 4, {2-butyl-5-chloro-3-[(2'-(1H-tetrazol-5-yl)biphenyl-4-yl)methyl]-3H-imidazol-4-yl}[6-(dimethoxymethyl)pyridin-2-yl]methanol]",71.2
16,"CCCCc1nc(Cl)c(C(=O)c2cccc(C(C)O)[n+]2[O-])n1Cc1ccc(-c2ccccc2-c2nn[nH]n2)cc1 (stereo not shown) [Compound 19, {2-butyl-5-chloro-3-[(2'-(1H-tetrazol-5-yl)biphenyl-4-yl)methyl]-3H-imidazol-4-yl}[6-(1-hydroxyethyl)-1-oxypyridin-2-yl]methanone]",88.7
17,"CCCCc1nc(Cl)c(C(=O)c2ccc(CN(CC)CC)c[n+]2[O-])n1Cc1ccc(-c2ccccc2-c2nn[nH]n2)cc1 [Compound 31, {2-butyl-5-chloro-3-[(2'-(1H-tetrazol-5-yl)biphenyl-4-yl)methyl]-3H-imidazol-4-yl}[5-(diethylamino)methyl-1-oxypyridin-2-yl]methanone]",97.8
18,"CCCCc1nc(Cl)c(C(=O)c2ccc(C=O)c(C)[n+]2[O-])n1Cc1ccc(-c2ccccc2-c2nn[nH]n2)cc1 [Compound 40, {2-butyl-5-chloro-3-[(2'-(1H-tetrazol-5-yl)biphenyl-4-yl)methyl]-3H-imidazol-4-yl}(5-formyl-6-methyl-1-oxypyridin-2-yl)methanone]",90.4
19,"CCCCc1nc(Cl)c(C(O)c2cccc(C=O)n2)n1Cc1ccc(-c2ccccc2-c2nnn[nH]2)cc1 (stereo not shown) [Compound 5, {2-butyl-5-chloro-3-[(2'-(1H-tetrazol-5-yl)biphenyl-4-yl)methyl]-3H-imidazol-4-yl}(6-formylpyridin-2-yl)methanol]",64.9
20,"CCCCc1nc(Cl)c(C(=O)c2ccc(C(OC)OC)c(C)[n+]2[O-])n1Cc1ccc(-c2ccccc2-c2nn[nH]n2)cc1 [Compound 39, {2-butyl-5-chloro-3-[(2'-(1H-tetrazol-5-yl)biphenyl-4-yl)methyl]-3H-imidazol-4-yl}[5-(dimethoxymethyl)-6-methyl-1-oxypyridin-2-yl]methanone]",87.5
21,"CCCCc1nc(Cl)c(C(=O)c2cccc(C(OC)OC)[n+]2[O-])n1Cc1ccc(-c2ccccc2-c2nn[nH]n2)cc1 [Compound 1, {2-butyl-5-chloro-3-[(2'-(1H-tetrazol-5-yl)biphenyl-4-yl)methyl]-3H-imidazol-4-yl}[6-(dimethoxymethyl)-1-oxypyridin-2-yl]methanone]",91.1
22,"CCCCc1nc(Cl)c(C(=O)c2cccc(C(=O)OC)[n+]2[O-])n1Cc1ccc(-c2ccccc2-c2nn[nH]n2)cc1 [Compound 21, {2-butyl-5-chloro-3-[(2'-(1H-tetrazol-5-yl)biphenyl-4-yl)methyl]-3H-imidazol-4-yl}(6-methoxycarbonyl-1-oxypyridin-2-yl)methanone]",86.5
